Test results as given in US20230190924A1, “ANTIGEN OF ALLERGY AND EPITOPE THEREOF” (HOYU CO., LTD., priority 2017, published 2023).

Tested on: IgE antibodies from patients
Test: Epitope mapping (2) overlapping (10-amino-acid peptides) and (3) alanine scanning on peptide arrays
Assay type: binding, human
Settings: for region within the epitope important for binding to IgE antibodies from patients: procedures (B) overlapping and (C) alanine scanning; for binding to IgE antibodies from patients, sequence comprising a region amino-terminally adjacent to the epitope / binding to IgE antibodies from patients, sequence comprising a region carboxy-terminally adjacent to the epitope: overlapping peptides with flanking sequence
Experimental: On the basis of the sequences (SEQ ID NOs: 272-295 for vitellogenin-2 precursor, SEQ ID NOs: 296-303 for vitellogenin-3, SEQ ID NOs: 304-311 for apolipoprotein B precursor, and SEQ ID NOs: 312-318 for vitellogenin-1 or lipovitellin-1) of the peptides bound to an IgE antibody in serum in a patient-specific manner as described above in (A), a library of overlapping peptide fragments (length: 10 amino acids) was prepared using the sequences of the peptides and sequences in which sequences were added so as to flank each peptide in the amino acid sequences of allergen components (amino acid sequences of SEQ ID NO: 59, 106 or 262 for vitellogenin-2 precursor, SEQ ID NO: 2, 13 or 47 for vitellogenin-3, SEQ ID NO: 152, 237 or 251 for apolipoprotein B, and SEQ ID NO: 18 for vitellogenin-1 or lipovitellin-1) comprising the sequences of the peptide to carry out epitope mapping.
The peptides to be synthesized were shifted by one amino acid.
The library was prepared by the same procedure as described above in (A), and the presence or absence of binding of an IgE antibody present in the serum of a patient and a non-egg-allergic subject to each peptide fragment was measured by the same technique as described above. Amino acids at positions where the binding activity against IgE antibodies from patients were lost or decreased in the peptides shifted by one amino acid while binding activity against IgE antibodies from non-egg-allergic subjects arose were confirmed as amino acids adversely affecting the specificity of binding to IgE antibodies.
Chemiluminescence intensity in images obtained by measurement was converted into a numeric value in the same manner as in (A) using ImageQuant TL (GE Healthcare). Numeric values determined from images obtained as a result of using only anti-human IgE antibody-HRP antibody without carrying out the procedures (2) and (3) described above in the subsection titled (3) Spotting of cellulose-bound peptide solution were […] numeric values determined from images obtained from results about the serum of 6 patients. It was determined that a peptide having the resulting value larger than 0 had no binding activity against IgE antibodies when having less than 20% of values obtained using the sequences (amino acid sequences of SEQ ID NO: 59, 106 or 262 for vitellogenin-2, SEQ ID NO: 2, 13 or 47 for vitellogenin-3, SEQ ID NO: 152, 237 or 251 for apolipoprotein B, and SEQ ID NO: 18 for vitellogenin-1 or lipovitellin-1) serving as the basis of overlapping, had binding activity, albeit poor, against IgE antibodies when having 20% or more and less than 50% thereof, had binding activity, albeit somewhat poor, against IgE antibodies when having 50% or more and less than 70% thereof, had almost equivalent binding activity against IgE antibodies when having 70% or more and less than 90% thereof, and had equivalent or good binding activity against IgE antibodies and thus had remaining binding activity against IgE antibodies when having 90% or more thereof.
From the amino acid sequences identified above in (A), a library of peptide fragments in which N-terminal amino acids were substituted one by one by alanine according to a technique called alanine scanning (Non Patent Literature 1) was prepared by the same technique as described above. The presence or absence of binding of an IgE antibody present in the serum of a patient and a non-egg-allergic subject to each peptide fragment was measured by the same technique as described above. Amino acids at positions where the binding activity against IgE antibodies from patients were lost or decreased by the substitution by alanine while binding activity against IgE antibodies from non-egg-allergic subjects arose were confirmed as amino acids important for exertion of original antigenicity, or amino acids influencing exertion of original antigenicity.

Substance | region within the epitope important for binding to IgE antibodies from patients | further results
SEQ ID NO: 369: region in epitope 6 (TMFPSAIISK; epitope) | important for binding | 
SEQ ID NO: 669: region in epitope 47 (YSDVPIEKI; epitope) | important for binding | 
SEQ ID NO: 573: region in epitope 34 (KDEP; epitope) | important for binding | 
SEQ ID NO: 516: sequence comprising a region amino-terminally adjacent to epitope 23 (PCRGACKLH; epitope) |  | binding to IgE antibodies from patients, sequence comprising a region amino-terminally adjacent to the epitope: binding to IgE antibodies from patients
SEQ ID NO: 631: sequence comprising a region carboxy-terminally adjacent to epitope 41 (QELLFGRLD; epitope) |  | binding to IgE antibodies from patients, sequence comprising a region carboxy-terminally adjacent to the epitope: binding to IgE antibodies from patients
SEQ ID NO: 600: region in epitope 37 (IVTPGAKVAV; epitope) | important for binding | 
SEQ ID NO: 507: region in epitope 21 (PGHGIDKLYF; epitope) | important for binding | 
SEQ ID NO: 414: region in epitope 10 (ADRNA; epitope) | important for binding | 
SEQ ID NO: 551: sequence comprising a region carboxy-terminally adjacent to epitope 30 (QRKFVKIE; epitope) |  | binding to IgE antibodies from patients, sequence comprising a region carboxy-terminally adjacent to the epitope: binding to IgE antibodies from patients
SEQ ID NO: 539: region in epitope 27 (CGICGKYDA; epitope) | important for binding | 
SEQ ID NO: 509: region in epitope 21 (DKLYFDGKT; epitope) | important for binding | 
SEQ ID NO: 605: sequence comprising a region amino-terminally adjacent to epitope 38 (LVNYSPTKG; epitope) |  | binding to IgE antibodies from patients, sequence comprising a region amino-terminally adjacent to the epitope: binding to IgE antibodies from patients
SEQ ID NO: 384: sequence comprising a region amino-terminally adjacent to epitope 8 (IKELGKALQG; epitope) |  | binding to IgE antibodies from patients, sequence comprising a region amino-terminally adjacent to the epitope: binding to IgE antibodies from patients
SEQ ID NO: 336: sequence comprising a region carboxy-terminally adjacent to epitope 3 (ALKCIGNMGE; epitope) |  | binding to IgE antibodies from patients, sequence comprising a region carboxy-terminally adjacent to the epitope: binding to IgE antibodies from patients
SEQ ID NO: 498: sequence comprising a region amino-terminally adjacent to epitope 21 (ALAAPGHGID; epitope) |  | binding to IgE antibodies from patients, sequence comprising a region amino-terminally adjacent to the epitope: binding to IgE antibodies from patients
SEQ ID NO: 505: region in epitope 21 (AAPGHGID; epitope) | important for binding | 
SEQ ID NO: 393: sequence comprising a region carboxy-terminally adjacent to epitope 8 (LPTETPLV; epitope) |  | binding to IgE antibodies from patients, sequence comprising a region carboxy-terminally adjacent to the epitope: binding to IgE antibodies from patients
SEQ ID NO: 595: sequence comprising a region carboxy-terminally adjacent to epitope 37 (AKVAVKLHQK; epitope) |  | binding to IgE antibodies from patients, sequence comprising a region carboxy-terminally adjacent to the epitope: binding to IgE antibodies from patients
SEQ ID NO: 327: region in epitope 2 (QMTIKKSQNV; epitope) | important for binding | 

Substance | region within the epitope important for binding to IgE antibodies from patients | further results
SEQ ID NO: 462: sequence comprising a region amino-terminally adjacent to epitope 19 (NKIKTFNE; epitope) |  | binding to IgE antibodies from patients, sequence comprising a region amino-terminally adjacent to the epitope: binding to IgE antibodies from patients
SEQ ID NO: 458: region in epitope 17 (KWKLCADAS; epitope) | important for binding | 
SEQ ID NO: 476: sequence comprising a region carboxy-terminally adjacent to epitope 20 (AINIKIGSHE; epitope) |  | binding to IgE antibodies from patients, sequence comprising a region carboxy-terminally adjacent to the epitope: binding to IgE antibodies from patients
SEQ ID NO: 335: region in epitope 3 (KMKLALKCIG; epitope) | important for binding | 
SEQ ID NO: 622: sequence comprising a region amino-terminally adjacent to epitope 40 (GRYLHLAAV; epitope) |  | binding to IgE antibodies from patients, sequence comprising a region amino-terminally adjacent to the epitope: binding to IgE antibodies from patients
SEQ ID NO: 587: region in epitope 37 (SGIV; epitope) | important for binding | 
SEQ ID NO: 473: region in epitope 20 (INIKIGSH; epitope) | important for binding | 
SEQ ID NO: 592: region in epitope 37 (SGIVTPGAK; epitope) | important for binding | 
SEQ ID NO: 404: sequence comprising a region amino-terminally adjacent to epitope 9 (EVAFININKE; epitope) |  | binding to IgE antibodies from patients, sequence comprising a region amino-terminally adjacent to the epitope: binding to IgE antibodies from patients
SEQ ID NO: 553: sequence comprising a region amino-terminally adjacent to epitope 33 (IVTLAEKYDL; epitope) |  | binding to IgE antibodies from patients, sequence comprising a region amino-terminally adjacent to the epitope: binding to IgE antibodies from patients
SEQ ID NO: 446: region in epitope 16 (PKRKLPGDRA; epitope) | important for binding | 
SEQ ID NO: 461: region in epitope 19 (KIKTF; epitope) | important for binding | 
SEQ ID NO: 480: sequence comprising a region amino-terminally adjacent to epitope 20 (AGEATNLKAI; epitope) |  | binding to IgE antibodies from patients, sequence comprising a region amino-terminally adjacent to the epitope: binding to IgE antibodies from patients
SEQ ID NO: 624: sequence comprising a region carboxy-terminally adjacent to epitope 40 (KLEFLLSKK; epitope) |  | binding to IgE antibodies from patients, sequence comprising a region carboxy-terminally adjacent to the epitope: binding to IgE antibodies from patients
SEQ ID NO: 323: region in epitope 1 (VEEYNG; epitope) | important for binding | 
SEQ ID NO: 363: sequence comprising a region amino-terminally adjacent to epitope 6 (VVNSPRT; epitope) |  | binding to IgE antibodies from patients, sequence comprising a region amino-terminally adjacent to the epitope: binding to IgE antibodies from patients
SEQ ID NO: 434: region in epitope 15 (SSSSSNSKS; epitope) | important for binding | 
SEQ ID NO: 375: sequence comprising a region carboxy-terminally adjacent to epitope 7 (SAGSVADLVE; epitope) |  | binding to IgE antibodies from patients, sequence comprising a region carboxy-terminally adjacent to the epitope: binding to IgE antibodies from patients
SEQ ID NO: 346: region in epitope 4 (AWKDPKTVQG; epitope) | important for binding | 
